In PubChem BioAssay (NCI):
Where “and” joins values, the source holds several entries; their conditions need not be identical. Equal entries are not always repeated.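 1) Cells in 96-well plates. 2) Compound, 48 h, 5 concentrations. 3) Linear interpolation between surrounding doses. 4) Unreached endpoint = highest concentration. At the GI50, growth is halved. Definition used: TGI = concentration required for complete inhibition of growth.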

Tests used:
Test in all cases: inhibition of tumour cell growth, NCI panel, 48 h
[1] = test system: 786-0 renal
[2] = test system: HL-60(TB) leukemia
[3] = test system: HOP-62 NSCLC
[4] = test system: HOP-92 NSCLC
[5] = test system: MDA-MB-231 breast
[6] = test system: NCI/ADR-RES ovarian
[7] = test system: SF-295 CNS
[8] = test system: SK-MEL-2 melanoma
[9] = test system: SNB-75 CNS
[10] = test system: TK-10 renal

Cc1cc(C)c2c(SCc3ccc(Cl)cc3Cl)nc(N)nc2n1
TGI [1]: 41.8 µM
TGI [2]: > 100 µM
TGI [3]: > 100 µM
TGI [4]: 58.1 µM
TGI [5]: > 100 µM
TGI [6]: > 100 µM
TGI [7]: > 100 µM
TGI [8]: > 100 µM
TGI [9]: > 100 µM
TGI [10]: 47.5 µM

NCCP(=O)(O)O
TGI [1]: > 100 µM
TGI [2]: > 100 µM
TGI [3]: > 100 µM
TGI [4]: > 100 µM
TGI [5]: > 100 µM
TGI [6]: > 100 µM
TGI [7]: > 100 µM
TGI [8]: > 100 µM
TGI [9]: > 100 µM
TGI [10]: > 100 µM

N#C/C(N)=C(\C#N)N=Cc1csc2ccccc12
GI50 [1]: 34.2 µM
TGI [1]: > 100 µM
GI50 [2]: > 100 µM
TGI [2]: > 100 µM
GI50 [3]: 15 µM
TGI [3]: 34.6 µM
GI50 [4]: 24.1 µM
TGI [4]: > 100 µM
GI50 [5]: 15.2 µM
TGI [5]: 41 µM
GI50 [6]: 32.4 µM
TGI [6]: > 100 µM
GI50 [7]: 51.5 µM
TGI [7]: > 100 µM
GI50 [8]: > 100 µM
TGI [8]: > 100 µM
GI50 [9]: 12.5 µM
TGI [9]: 31.2 µM
GI50 [10]: 17.6 µM
TGI [10]: 45 µM

COc1ccc(C(=O)COc2cccc(/C=C3\CSc4ccc(Cl)cc4C3=O)c2)cc1
GI50 [1]: 15.6 µM
TGI [1]: 29.8 µM
GI50 [2]: 2.18 µM
TGI [2]: 7.21 µM
GI50 [3]: 19.5 µM
TGI [3]: 47.3 µM
GI50 [4]: 1.28 µM
TGI [4]: 19.8 µM
GI50 [5]: 14.2 µM
TGI [5]: 64.3 µM
GI50 [6]: 11.4 µM
TGI [6]: 29.9 µM
GI50 [7]: 11.3 µM
TGI [7]: 28.7 µM
GI50 [8]: 11.7 µM
TGI [8]: 25.1 µM
GI50 [9]: 16.5 µM
TGI [9]: 37.2 µM
GI50 [10]: 19.7 µM
TGI [10]: 41.4 µM

O=C1C(=O)c2ccccc2C(O)=C1CC=C(Cl)Cl
GI50 [1]: 4.63 µM and 13.4 µM
TGI [1]: > 68.9 µM and 250 µM and > 100 µM
GI50 [2]: 3.24 µM and 13.3 µM
TGI [2]: 37.8 µM and > 76.6 µM and 56.6 µM
GI50 [3]: 9.44 µM and 14 µM
TGI [3]: 64.1 µM and 61 µM and > 100 µM
GI50 [4]: 14.2 µM and 11.8 µM
TGI [4]: 50.8 µM and 122 µM and 47.3 µM
GI50 [5]: 3.59 µM
TGI [5]: > 52.8 µM and 119 µM and 56.2 µM
GI50 [6]: 5.15 µM and 6.97 µM
TGI [6]: 56 µM and 174 µM and > 100 µM
GI50 [7]: 9.87 µM and 7.86 µM
TGI [7]: 75.5 µM and 137 µM
GI50 [8]: 22.1 µM
TGI [8]: 44.3 µM and 47.1 µM and 63.9 µM
GI50 [9]: 21.3 µM and 6.06 µM
TGI [9]: 65 µM and 169 µM and > 100 µM
GI50 [10]: 25.7 µM and 20.7 µM
TGI [10]: 98.6 µM and 195 µM and > 100 µM

CC(=O)c1cc2c(c3ccsc13)-c1ccccc1CC2
GI50 [1]: 35.2 µM
TGI [1]: > 100 µM
GI50 [2]: 30.8 µM
TGI [2]: > 100 µM
GI50 [3]: 36.4 µM
TGI [3]: > 100 µM
GI50 [4]: 28.9 µM
TGI [4]: > 100 µM
GI50 [5]: 16.4 µM
TGI [5]: 67.1 µM
GI50 [6]: 16.6 µM
TGI [6]: 44.8 µM
GI50 [7]: 26.5 µM
TGI [7]: > 100 µM
GI50 [8]: 26.5 µM
TGI [8]: 83 µM
GI50 [9]: > 100 µM
TGI [9]: > 100 µM
GI50 [10]: 25.4 µM
TGI [10]: 83 µM

C1=C(c2ccccc2)C(c2ccc(OCCN3CCCCC3)cc2)Oc2ccccc21 (stereo not given)
GI50 [1]: 1.5 µM
TGI [1]: 2.83 µM
GI50 [2]: 1.73 µM
TGI [2]: 3.76 µM
GI50 [3]: 1.67 µM
TGI [3]: 3.29 µM
GI50 [4]: 1.56 µM
TGI [4]: 3.25 µM
GI50 [5]: 1.86 µM
TGI [5]: 3.51 µM
GI50 [6]: 2.4 µM
TGI [6]: 8.16 µM
GI50 [7]: 1.72 µM
TGI [7]: 3.29 µM
GI50 [8]: 2.03 µM
TGI [8]: 4.33 µM
GI50 [9]: 1.6 µM
TGI [9]: 3.44 µM
GI50 [10]: 1.69 µM
TGI [10]: 3.4 µM
